Molecular target: Cathepsin B (Homo sapiens, UniProt P07858)
Experiment: Inhibition of cathepsin B mediated osteoporotic activity

COc1cc2c([nH]c3c4c(c(C)cc32)OC(C)(C)C=C4)c(-c2c(O)c(OC)cc3c2[nH]c2c4c(c(C)cc23)OC(C)(C)C=C4)c1O
IC50: 2.11 µM

Reference: ChEMBL document CHEMBL1150683, “Two new carbazole alkaloids from Murraya koenigii” (J Nat Prod, 2003)
